# What was measured:
# [1] = test system: human non-small cell lung cancer cell line NCI-H2228 cells (EML4-ALK fusion protein-expressing cells); assay: Inhibitory effect against anchorage-independent cell growth of NCI-H2228 cells (Test Example 3); type: cell-based; conditions: 120 h, spheroid plate, 5 days, CellTiter-Glo
# [2] = test system: human non-small cell lung cancer cell line HCC827 cells (mutant EGFR protein-expressing cells); assay: Inhibitory effect against anchorage-independent cell growth of HCC827 cells (Test Example 4); type: cell-based; conditions: 120 h, spheroid plate, 5 days, CellTiter-Glo
# [3] = Toxicity test in rats, 7-day repeated oral administration (Test Example 5); type: in vivo, SD rats; conditions: 7 days; for Non-toxic dose: oral; for Dose: Bone marrow inhibition / Dose: Exacerbation of common symptoms / Dose: Moribund condition: SD, rat, in vivo, po
# Source text: Test compounds were each suspended in a 0.5% aqueous methylcellulose solution and repeatedly administered to SD rats (two females and four males in each group) by the oral route at each dose for 7 days.
# 88 types of kinases = assay: Kinase inhibition profiling, 88 types of kinases (Test Example 6); type: biochemical; conditions: concentration of 100 nM
# PHKG1 = target: T1, PHKG1 (Homo sapiens, UniProt Q16816); assay: Kinase inhibition profiling, PHKG1 (Test Example 6); type: biochemical; conditions: 100 nM; read-out: inhibitory activity against PHKG1
# T1 construct: purchased Carna Biosciences Inc., Japan (contract measurement)
# T1 sequence (Q16816 whole entry): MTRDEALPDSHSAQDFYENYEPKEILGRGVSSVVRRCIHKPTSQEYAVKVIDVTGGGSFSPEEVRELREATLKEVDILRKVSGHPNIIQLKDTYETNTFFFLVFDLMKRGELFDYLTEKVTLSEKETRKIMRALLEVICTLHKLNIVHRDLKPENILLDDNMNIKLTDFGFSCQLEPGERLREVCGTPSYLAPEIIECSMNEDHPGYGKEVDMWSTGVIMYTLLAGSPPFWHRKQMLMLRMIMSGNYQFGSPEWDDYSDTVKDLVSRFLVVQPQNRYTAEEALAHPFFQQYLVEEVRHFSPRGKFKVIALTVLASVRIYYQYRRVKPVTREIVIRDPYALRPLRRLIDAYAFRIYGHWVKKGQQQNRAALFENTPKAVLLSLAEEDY
# MNK2 = target: T2, MNK2 (Homo sapiens, UniProt Q9HBH9); assay: Kinase inhibition profiling, MNK2 (Test Example 6); type: biochemical; conditions: 100 nM; read-out: inhibitory activity against MNK2
# T2 construct: purchased Carna Biosciences Inc., Japan (contract measurement)
# T2 sequence (Q9HBH9 whole entry): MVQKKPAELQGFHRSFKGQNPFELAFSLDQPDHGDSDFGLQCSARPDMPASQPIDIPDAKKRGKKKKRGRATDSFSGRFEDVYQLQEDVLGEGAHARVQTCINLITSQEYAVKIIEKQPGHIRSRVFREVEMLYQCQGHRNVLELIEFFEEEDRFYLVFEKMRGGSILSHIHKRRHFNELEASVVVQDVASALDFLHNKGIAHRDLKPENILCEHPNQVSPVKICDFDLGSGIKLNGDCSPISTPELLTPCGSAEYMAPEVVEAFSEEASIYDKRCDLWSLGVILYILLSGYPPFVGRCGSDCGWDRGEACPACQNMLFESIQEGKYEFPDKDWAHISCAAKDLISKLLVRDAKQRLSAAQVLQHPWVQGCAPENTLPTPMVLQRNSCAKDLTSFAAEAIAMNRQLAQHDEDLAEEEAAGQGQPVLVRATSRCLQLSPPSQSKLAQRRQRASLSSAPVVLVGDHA
# MUSK = target: T3, MUSK (Homo sapiens, UniProt O15146); assay: Kinase inhibition profiling, MUSK (Test Example 6); type: biochemical; parameters: purchased Carna Biosciences Inc., Japan (contract measurement); conditions: 100 nM; read-out: inhibitory activity against MUSK
# T3 sequence (O15146 24-869): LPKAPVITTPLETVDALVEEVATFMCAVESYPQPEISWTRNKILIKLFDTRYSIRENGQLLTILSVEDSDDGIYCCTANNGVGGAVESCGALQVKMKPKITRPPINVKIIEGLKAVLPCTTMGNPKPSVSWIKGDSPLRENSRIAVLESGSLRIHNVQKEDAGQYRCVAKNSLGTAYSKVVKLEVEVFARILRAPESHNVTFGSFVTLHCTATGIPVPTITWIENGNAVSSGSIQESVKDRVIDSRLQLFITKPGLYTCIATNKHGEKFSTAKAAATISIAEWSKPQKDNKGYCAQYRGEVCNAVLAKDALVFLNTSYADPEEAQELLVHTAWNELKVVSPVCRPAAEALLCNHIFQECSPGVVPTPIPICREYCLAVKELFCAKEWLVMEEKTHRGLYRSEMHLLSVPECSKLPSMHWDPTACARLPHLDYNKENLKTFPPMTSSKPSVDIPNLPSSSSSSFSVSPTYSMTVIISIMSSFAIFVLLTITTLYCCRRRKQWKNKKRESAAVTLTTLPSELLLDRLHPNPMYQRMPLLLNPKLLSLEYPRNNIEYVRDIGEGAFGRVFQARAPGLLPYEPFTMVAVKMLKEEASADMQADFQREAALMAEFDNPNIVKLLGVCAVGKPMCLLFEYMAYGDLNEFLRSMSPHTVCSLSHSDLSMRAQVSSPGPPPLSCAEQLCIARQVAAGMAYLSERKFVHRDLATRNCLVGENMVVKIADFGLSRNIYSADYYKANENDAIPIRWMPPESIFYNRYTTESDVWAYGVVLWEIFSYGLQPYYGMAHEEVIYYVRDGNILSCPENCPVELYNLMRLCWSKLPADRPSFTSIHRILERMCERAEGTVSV
SMILES,IC50 [1] [nM],IC50 [2] [nM],Non-toxic dose ([3]; female SD rats (2 rats)) [mg/kg],Dose: Bone marrow inhibition ([3]; female) [mg/kg],Dose: Exacerbation of common symptoms ([3]; female),Dose: Moribund condition ([3]; female),Non-toxic dose ([3]; male SD rats (4 rats)) [mg/kg],Dose: Bone marrow inhibition ([3]; male) [mg/kg],Dose: Exacerbation of common symptoms ([3]; male),Dose: Moribund condition ([3]; male),number of types of kinases (of 88) with 50% or more inhibitory activity (88 types of kinases),inhibition at 0.1 µM (PHKG1) [%],inhibition at 0.1 µM (MNK2) [%],inhibition at 0.1 µM (MUSK) [%]
COc1cc(N2CCC(N3CCN(C)CC3)CC2)ccc1Nc1ncnc(Nc2ccccc2S(=O)(=O)C(C)C)n1 [Example 23],71,272,10,100,(>300) mg/kg,(>300) mg/kg,10,100,(>300) mg/kg,(>300) mg/kg,4 types of kinases,< 20,80,< 20
CCNS(=O)(=O)c1ccccc1Nc1ncnc(Nc2ccc(N3CCC(N4CCN(C)CC4)CC3)cc2OC)n1 [Example 123],30,238,,,,,,,,,,,,
